In patent US20180127374A1, “BE[…] AS OPIOID RECEPTORS MODULATORS” (Purdue Pharma L.P., priority 2012, published 2018):
Where two headings read alike, the source gives them in different places.

Key:
μ-opioid receptor [1] = target: T1, μ-opioid receptor (Homo sapiens, UniProt P35372); assay: μ-opioid receptor radioligand dose-displacement binding assay
Experimental: Radioligand dose-displacement binding assays for μ-opioid receptors used 0.3 nM [^3H]-diprenorphine (Perkin Elmer, Shelton, Conn.), with […] membrane protein/well in a final volume of […] binding buffer (10 mM MgCl2, 1 mM EDTA, 5% DMSO, 50 mM HEPES, pH 7.4). Reactions were carried out in the absence or presence of increasing concentrations of unlabeled naloxone. All reactions were conducted in 96-deep well polypropylene plates for 2 hr at room temperature. […] The data were analyzed using the one-site competition curve fitting functions in GraphPad PRISM™ v. 3.0 or higher (San Diego, Calif.), or an in-house function for one-site competition curve-fitting.
Target sequence in this assay (P35372 whole entry): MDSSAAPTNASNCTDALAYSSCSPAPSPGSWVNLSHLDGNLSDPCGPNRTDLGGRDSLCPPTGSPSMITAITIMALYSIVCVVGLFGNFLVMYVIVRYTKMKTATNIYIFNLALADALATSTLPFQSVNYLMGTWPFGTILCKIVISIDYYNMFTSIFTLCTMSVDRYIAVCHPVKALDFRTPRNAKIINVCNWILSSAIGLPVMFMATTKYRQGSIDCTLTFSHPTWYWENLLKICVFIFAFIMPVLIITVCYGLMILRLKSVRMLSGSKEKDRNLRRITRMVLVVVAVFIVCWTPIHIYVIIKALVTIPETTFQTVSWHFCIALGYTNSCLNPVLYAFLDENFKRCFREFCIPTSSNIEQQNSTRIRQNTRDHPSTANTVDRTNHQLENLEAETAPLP

κ opioid receptor [2] = target: T2, κ opioid receptor (Homo sapiens, UniProt P41145); assay: κ-opioid receptor [35S]GTPγS functional assay; format: biochemical; set-up: expressed in transfected cells; details: for Emax: relative to the effect elicited by U69,593
T2 sequence (P41145 whole entry): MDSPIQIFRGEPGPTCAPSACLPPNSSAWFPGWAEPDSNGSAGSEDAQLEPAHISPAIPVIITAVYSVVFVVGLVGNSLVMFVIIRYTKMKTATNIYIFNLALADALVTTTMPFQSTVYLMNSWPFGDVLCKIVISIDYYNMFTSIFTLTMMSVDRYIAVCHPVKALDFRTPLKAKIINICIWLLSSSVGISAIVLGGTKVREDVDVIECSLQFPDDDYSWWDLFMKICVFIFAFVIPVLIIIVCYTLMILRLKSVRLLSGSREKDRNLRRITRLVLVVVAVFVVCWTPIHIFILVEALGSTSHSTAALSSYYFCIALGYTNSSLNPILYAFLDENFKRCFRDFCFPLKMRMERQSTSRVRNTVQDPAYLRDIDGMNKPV
Experimental: Functional [^35S]GTPγS binding assays were conducted as follows. κ opioid receptor membrane solution was prepared by sequentially adding final concentrations of 0.026 μg/μl κ membrane protein (in-house), 10 μg/mL saponin, 3 μM GDP and 0.20 nM [^35S]GTPγS to binding buffer (100 mM NaCl, 10 mM MgCl2, 20 mM HEPES, pH 7.4) on ice. The prepared membrane solution (190 μl/well) was transferred to 96-shallow well polypropylene plates containing 10 μl of 20× concentrated stock solutions of agonist prepared in DMSO. Plates were incubated for 30 min at a temperature of about 25° C. with shaking.
κ GTP EC50 is the concentration of a compound providing 50% of the maximal response for the compound at a κ receptor.
κ GTP Emax (%) is the maximal effect elicited by a compound relative to the effect elicited by U69,593.

μ-opioid receptor [3] = target: T1, μ-opioid receptor; assay: μ-opioid receptor [35S]GTPγS functional assay; format: biochemical; set-up: purchased Perkin Elmer, Shelton, Conn; details: for Emax: relative to the effect elicited by DAMGO
Experimental: [^35S]GTPγS functional assays were conducted using freshly thawed μ-receptor membranes (Perkin Elmer, Shelton, Conn.). Assay reactions were prepared by sequentially adding the following reagents to binding buffer (100 mM NaCl, 10 mM MgCl2, 20 mM HEPES, pH 7.4) on ice (final concentrations indicated): membrane protein (0.026 mg/mL), saponin ([…]), GDP ([…]) and [^35S]GTPγS (0.20 nM; Perkin Elmer, Shelton, Conn.). The prepared membrane solution (190 μl/well) was transferred to 96-shallow well polypropylene plates containing 10 μI of 20× concentrated stock solutions of the agonist [D-Ala^e, N-methyl-Phe^4 Gly-ol^5]-enkephalin (DAMGO) prepared in dimethyl sulfoxide (DMSO). Plates were incubated for 30 min at about 25° C. with shaking. […] Data were analyzed using the sigmoidal dose-response curve fitting functions in GraphPad PRISM v. 3.0, or an in-house function for non-linear, sigmoidal dose-response curve-fitting.
μ GTP EC50 is the concentration of a compound providing 50% of the maximal response for the compound at a μ-opioid receptor.
μ GTP Emax (%) is the maximal effect elicited by a compound relative to the effect elicited by DAMGO, a standard μ agonist. Generally, the μ GTP Emax (%) value measures the efficacy of a compound to treat or prevent pain or other Conditions.
Target sequence in this assay (P35372 whole entry, species assumed): as the sequence (P35372 whole entry) above

κ opioid receptor [4] = target: T2, κ opioid receptor; assay: κ-opioid receptor radioligand dose displacement binding assay; set-up: expressed in transfected cells; host or cells: HEK-293
Experimental: Membranes from recombinant HEK-293 cells expressing the human κ opioid receptor (κ) (cloned in house) were prepared by lysing cells in ice cold hypotonic buffer (2.5 mM MgCl2, 50 mM HEPES, pH 7.4) (10 mL/10 cm dish) followed by homogenization with a tissue grinder/Teflon pestle. Membranes were collected by centrifugation at 30,000×g for 15 min at 4° C. and pellets were resuspended in hypotonic buffer to a final concentration of 1-3 mg/mL. Protein concentrations were determined using the BioRad protein assay reagent with bovine serum albumen as standard. Aliquots of κ receptor membranes were stored at […]

[5] = [3H]-diprenorphine displacement, read-out: Ki (nM) Opioid Receptor μ
[6] = κ membrane protein (in-house), read-out: GTPγS κ EC50
[7] = μ-receptor membranes, read-out: GTPγS μ EC50
[8] = [3H]-U69,593 displacement, HEK-293 membranes, read-out: Ki (nM) Opioid Receptor κ
[9] = μ-receptor membranes, μM, read-out: GTPγS μ EC50

| Compound | Ki (μ-opioid receptor [1]; [5]) [nM] | Emax (κ opioid receptor [2]) [%] | EC50 (κ opioid receptor [2]; [6]) [µM] | Emax (μ-opioid receptor [3]) [%] | EC50 (μ-opioid receptor [3]; [7]) [µM] | Ki (κ opioid receptor [4]; [8]) [nM] | EC50 (μ-opioid receptor [3]; [9]) [µM] | EC50 (κ opioid receptor [2]; κ membrane protein (in-house), μM, read-out: GTPγS κ EC50) [µM] | Ki (μ-opioid receptor [1]) [nM] | EC50 (κ opioid receptor [2]) [µM] | EC50 (μ-opioid receptor [3]) [µM] | Ki (κ opioid receptor [4]) [nM] |
| --- | --- | --- | --- | --- | --- | --- | --- | --- | --- | --- | --- | --- |
| CC(C)N1CC[C@@]2(CCCC(N)=O)c3cc(O)ccc3C[C@@H]1[C@@H]2C [Compound 17, 4-((2R,6R,11R)-8-hydroxy-3-isopropyl-11-methyl-1,2,3,4,5,6-hexahydro-2,6-methanobenzo[d]azocin-6-yl)butanamide] | 165 ± 6.97 | 60.7 | 0.107 | 38 | 0.0682 | 5 ± 0.53 |  |  |  |  |  |  |
| C[C@H](NC(=O)CCC[C@]12CCN(CC3CC3)[C@H](Cc3ccc(O)cc31)[C@@H]2C)C(N)=O [Compound 22, N—((S)-1-amino-1-oxopropan-2-yl)-4-((2R,6R,11R)-3-(cyclopropylmethyl)-8-hydroxy-11-methyl-1,2,3,4,5,6-hexahydro-2,6-methanobenzo[d]azocin-6-yl)butanamide] | 6.33 ± 1.54 | 53.3 | 0.0132 | 22.3 | 0.0007 | 0.41 ± 0.08 |  |  |  |  |  |  |
| C[C@H](NC(=O)C[C@@]12CCN(CC3CC3)C(Cc3ccc(O)cc31)[C@@H]2C)C(N)=O [Compound 1, (2S)-2-(2-((6R,11R)-3-(cyclopropylmethyl)-8-hydroxy-11-methyl-1,2,3,4,5,6-hexahydro-2,6-methanobenzo[d]azocin-6-yl)acetamido)propanamide] | 31.7 ± 6.24 | 31.3 | 0.00891 |  |  | 1.48 ± 0.27 | > 20 |  |  |  |  |  |
| C[C@H]1[C@H]2Cc3ccc(O)cc3[C@]1(CCCC(N)=O)CCN2Cc1ccccc1 [Compound 19, 4-((2R,6R,11R)-3-benzyl-8-hydroxy-11-methyl-1,2,3,4,5,6-hexahydro-2,6-methanobenzo[d]azocin-6-yl)butanamide] | 2.65 ± 0.36 |  |  | 13.7 | 0.0401 |  |  | > 20 |  |  |  |  |
| COc1ccc2c(c1)[C@@]1(CCCCOCc3ccccc3)CCN(CC3CC3)C(C2)[C@@H]1C [Compound 12, (6S,11R)-6-(4-(benzyloxy)butyl)-3-(cyclopropylmethyl)-8-methoxy-11-methyl-1,2,3,4,5,6-hexahydro-2,6-methanobenzo[d]azocine] | 166 ± 51.8 | 97.7 | 0.0144 | 30.8 | 0.58 | 0.27 ± 0.01 |  |  |  |  |  |  |
| COc1ccc2c(c1)[C@@]1(C[C@H](O)CO)CCN(CC3CC3)C(C2)[C@@H]1C [Compound 6, (2S)-3-((6R,11R)-3-(cyclopropylmethyl)-8-methoxy-11-methyl-1,2,3,4,5,6-hexahydro-2,6-methanobenzo[d]azocin-6-yl)propane-1,2-diol] |  | 69.3 |  |  |  |  |  |  | 3340 ± 895 | 3.09 | > 20 | 46.4 ± 9.7 |
| COc1ccc2c(c1)[C@@]1(CCCCNCC(C)C)CCN(CC3CC3)C(C2)[C@@H]1C [Compound 9, 4-((6S,11R)-3-(cyclopropylmethyl)-8-methoxy-11-methyl-1,2,3,4,5,6-hexahydro-2,6-methanobenzo[d]azocin-6-yl)-N-isobutylbutan-1-amine] | 448 ± 113 | 103 | 0.0582 | 60 | 0.643 | 1.35 ± 0.57 |  |  |  |  |  |  |
| C[C@H]1C2Cc3ccc(O)cc3[C@@]1(CCCC(=O)O)CCN2CC1CC1 [Compound 4, 4-((6S,11R)-3-(cyclopropylmethyl)-8-hydroxy-11-methyl-1,2,3,4,5,6-hexahydro-2,6-methanobenzo[d]azocin-6-yl)butanoic acid] | 7.61 ± 2.44 | 67.3 | 0.0248 |  |  | 2.52 ± 0.23 | > 20 |  |  |  |  |  |
| COc1ccc2c(c1)[C@@]1(CCC[C@@H](O)CO)CCN(CC3CC3)C(C2)[C@@H]1C [Compound 10, (2R)-5-((6S,11R)-3-(cyclopropylmethyl)-8-methoxy-11-methyl-1,2,3,4,5,6-hexahydro-2,6-methanobenzo[d]azocin-6-yl)pentane-1,2-diol] |  | 95 |  |  |  |  |  |  | 3090 ± 922 | 0.0943 |  | 6.68 ± 0.61 |
